Reference: BindingDB's records for doi:10.1124/mol.59.3.420 (The R. W. Johnson Pharmaceutical Research Institute, 2001)

What was measured:
Histamine H4 receptor = Histamine H4 receptor (Homo sapiens, UniProt Q9H3N8)
Histamine H3 receptor = Histamine H3 receptor (Homo sapiens, UniProt Q9Y5N1)
Chain of Histamine H3 receptor (Q9Y5N1 whole entry): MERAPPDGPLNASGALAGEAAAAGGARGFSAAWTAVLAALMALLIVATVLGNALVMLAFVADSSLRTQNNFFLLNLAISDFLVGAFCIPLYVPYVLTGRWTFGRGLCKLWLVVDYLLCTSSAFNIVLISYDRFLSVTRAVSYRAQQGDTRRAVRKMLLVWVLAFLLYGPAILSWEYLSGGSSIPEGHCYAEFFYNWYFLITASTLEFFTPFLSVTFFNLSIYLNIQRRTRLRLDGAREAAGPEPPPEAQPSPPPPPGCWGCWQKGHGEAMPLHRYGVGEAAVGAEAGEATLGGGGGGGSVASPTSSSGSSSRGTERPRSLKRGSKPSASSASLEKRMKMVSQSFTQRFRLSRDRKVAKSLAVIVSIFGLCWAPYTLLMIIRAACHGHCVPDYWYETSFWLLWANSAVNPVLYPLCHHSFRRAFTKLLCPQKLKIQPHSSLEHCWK

Chain of Histamine H4 receptor (Q9H3N8 whole entry): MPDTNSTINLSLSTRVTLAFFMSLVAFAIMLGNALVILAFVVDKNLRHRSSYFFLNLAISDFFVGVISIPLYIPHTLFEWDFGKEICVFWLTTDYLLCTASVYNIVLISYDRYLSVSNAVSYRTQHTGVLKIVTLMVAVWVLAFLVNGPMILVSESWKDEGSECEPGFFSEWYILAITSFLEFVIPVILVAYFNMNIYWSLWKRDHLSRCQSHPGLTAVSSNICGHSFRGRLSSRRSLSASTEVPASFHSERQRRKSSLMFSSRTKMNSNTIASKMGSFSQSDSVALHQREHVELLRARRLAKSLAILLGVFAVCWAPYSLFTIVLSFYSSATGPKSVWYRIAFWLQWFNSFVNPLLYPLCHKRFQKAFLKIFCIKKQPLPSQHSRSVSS

Compound | Ki (Histamine H4 receptor) [nM] | Ki (Histamine H3 receptor) [nM]
CN/C(=N/CCSCc1nc[nH]c1C)NC#N | > 10000 | –
CN/C([CH-][N+](=O)[O-])=[NH+]\CCSCc1ccc(CN(C)C)o1 | > 10000 | > 10000
C[C@@H](N)Cc1c[nH]cn1 | 146 | –
CNC(=S)NCCCCc1cnc[nH]1 [1-[4-(1H-imidazol-5-yl)butyl]-3-methylthiourea] | – | 84
N=C(N)SCCc1cnc[nH]1 [2-(3H-imidazol-4-yl)ethylsulfanylmethanimidamide] | 2.7 | 0.3
Cc1[nH]cnc1CSCCNC(=N)NCCCc1c[nH]cn1 [2-[3-(1H-imidazol-5-yl)propyl]-1-(2-{[(5-methyl-1H-imidazol-4-yl)methyl]sulfanyl}ethyl)guanidine] | 12.3 | 67
c1nc(CC2CCNCC2)c[nH]1 [4-(1H-imidazol-4-ylmethyl)piperidine] | 9 | –
CN1CCC(=C2c3ccccc3C=Cc3ccccc32)CC1 [5-(1-methylpiperidylidene-4)-5H-dibenzo(a,d)cyclopheptene] | > 10000 | –
CNCCc1c[nH]cn1 [N(alpha)-Methylhistamine] | 23 | 0.5
N#Cc1ccc(OCCCN2CCCCC2)cc1 [UCL-2138] | > 10000 | –
NC(=NCc1ccc(Cl)cc1)SCCCc1cnc[nH]1 [VUF 9153] | 12.8 | –
CN(C)CCCSC(=N)N [[3-(carbamimidoylsulfanyl)propyl]dimethylamine] | – | 825
